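Growth conditions: 96-well plates. Treatment: test compound, 48 hours, 5 concentrations. Analysis: linear interpolation between bracketing concentrations; unreached endpoints set to highest concentration. The concentration for 50% growth inhibition is given as GI50.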 Activity calls are given as the source filed them. Cut-off read from the data, not from the text of the source: active = GI50 up to about 1.1 µM and inactive = higher.
Tests used:
Assay in all cases: NCI anticancer screen, dose series, 48 h
UACC-257 = system: UACC-257
NCI-H460 = system: NCI-H460
HCT-15 = system: HCT-15
786-0 = system: 786-0
TK-10 = system: TK-10
HOP-62 = system: HOP-62
NCI/ADR-RES = system: NCI/ADR-RES
OVCAR-4 = system: OVCAR-4
SNB-75 = system: SNB-75
UO-31 = system: UO-31
CAKI-1 = system: CAKI-1
UACC-62 = system: UACC-62
COLO 205 = system: COLO 205
EKVX = system: EKVX
HT-29 = system: HT-29
SK-MEL-5 = system: SK-MEL-5
SK-MEL-28 = system: SK-MEL-28
SNB-19 = system: SNB-19
NCI-H23 = system: NCI-H23
MOLT-4 = system: MOLT-4
OVCAR-3 = system: OVCAR-3
ACHN = system: ACHN
SF-295 = system: SF-295
KM12 = system: KM12
SK-OV-3 = system: SK-OV-3
DU-145 = system: DU-145
NCI-H522 = system: NCI-H522
SK-MEL-2 = system: SK-MEL-2
MDA-MB-231 = system: MDA-MB-231
OVCAR-5 = system: OVCAR-5
RXF 393 = system: RXF 393
K562 = system: K562
PC-3 = system: PC-3
MCF7 = system: MCF7
IGROV-1 = system: IGROV-1
HCC 2998 = system: HCC 2998
A498 = system: A498
M14 = system: M14
OVCAR-8 = system: OVCAR-8
HOP-92 = system: HOP-92
U-251 = system: U-251
MDA-MB-435 = system: MDA-MB-435
HCT-116 = system: HCT-116
A549 = system: A549
BT-549 = system: BT-549
MDA-N = system: MDA-N
RPMI-8226 = system: RPMI-8226
Malme-3M = system: Malme-3M
SF-268 = system: SF-268
Hs-578T = system: Hs-578T
CCRF-CEM = system: CCRF-CEM
HL-60 = system: HL-60
SR = system: SR
NCI-H226 = system: NCI-H226
SN12C = system: SN12C
SF-539 = system: SF-539
SW-620 = system: SW-620
LOX IMVI = system: LOX IMVI

Measured: GI50

CCOP(=O)(Nc1ccc(-c2ccc(N)cc2)cc1)OCC
> 100 µM: HCT-15
inactive: UACC-257 > 100 µM | NCI-H460 > 100 µM | 786-0 > 100 µM | TK-10 > 100 µM | HOP-62 89.5 µM | NCI/ADR-RES > 100 µM | OVCAR-4 > 100 µM | SNB-75 > 100 µM | UO-31 > 100 µM | CAKI-1 > 100 µM | UACC-62 > 100 µM | COLO 205 > 100 µM | EKVX 38.9 µM | HT-29 > 100 µM | SK-MEL-5 > 100 µM | SK-MEL-28 > 100 µM | SNB-19 94.8 µM | NCI-H23 > 100 µM | MOLT-4 > 100 µM | OVCAR-3 > 100 µM | ACHN > 100 µM | SF-295 84.5 µM | KM12 > 100 µM | SK-OV-3 > 100 µM | DU-145 > 100 µM | NCI-H522 > 100 µM | SK-MEL-2 > 100 µM | MDA-MB-231 > 100 µM | OVCAR-5 51.6 µM | RXF 393 35.2 µM | K562 > 100 µM | PC-3 > 100 µM | MCF7 > 100 µM | IGROV-1 > 100 µM | HCC 2998 > 100 µM | A498 > 100 µM | M14 > 100 µM | OVCAR-8 > 100 µM | HOP-92 > 100 µM | U-251 > 100 µM | MDA-MB-435 > 100 µM | HCT-116 99.8 µM | A549 > 100 µM | BT-549 > 100 µM | MDA-N > 100 µM | RPMI-8226 > 100 µM | Malme-3M > 100 µM | SF-268 > 100 µM | Hs-578T 43.6 µM

C[C@]12C[C@H](c3ccccc3)Nc3ccccc3N1C(c1ccccc1)=NO2
inactive: UACC-257 81.5 µM | NCI-H460 49.7 µM | CCRF-CEM 67.6 µM | 786-0 60.1 µM | TK-10 > 100 µM | HOP-62 > 100 µM | NCI/ADR-RES 41.1 µM | OVCAR-4 52 µM | SNB-75 51.3 µM | UO-31 41.4 µM | CAKI-1 64.3 µM | UACC-62 85.1 µM | COLO 205 78.7 µM | EKVX 21 µM | HT-29 55.2 µM | SK-MEL-5 30.1 µM | SNB-19 > 100 µM | NCI-H23 62.1 µM | MOLT-4 24.5 µM | HL-60 74.6 µM | OVCAR-3 28.5 µM | ACHN 64.1 µM | SF-295 22.5 µM | KM12 61 µM | SK-OV-3 > 100 µM | DU-145 > 100 µM | NCI-H522 > 100 µM | SK-MEL-2 > 100 µM | MDA-MB-231 > 100 µM | OVCAR-5 > 100 µM | SR 3.39 µM | RXF 393 > 100 µM | K562 33.8 µM | NCI-H226 > 100 µM | PC-3 40.4 µM | SN12C > 100 µM | MCF7 52.6 µM | IGROV-1 > 100 µM | HCC 2998 > 100 µM | A498 > 100 µM | M14 49.2 µM | SF-539 > 100 µM | SW-620 > 100 µM | OVCAR-8 85.7 µM | HOP-92 30.1 µM | U-251 96.4 µM | MDA-MB-435 35.5 µM | HCT-116 60.8 µM | A549 > 100 µM | BT-549 30.5 µM | MDA-N 74.1 µM | RPMI-8226 47.2 µM | Malme-3M 44.3 µM | SF-268 > 100 µM | Hs-578T > 100 µM
67.9 µM: HCT-15

Cc1ccc2c3c1O[C@H]1c4[nH]c5ccccc5c4C[C@@]4(O)[C@@H](C2)N(C)CC[C@]314
17.2 µM: HCT-15
active: Hs-578T 0.474 µM
inactive: UACC-257 13.7 µM | CCRF-CEM 18.3 µM | 786-0 15.6 µM | NCI/ADR-RES 17.8 µM | OVCAR-4 16.9 µM | UO-31 13.7 µM | CAKI-1 17.3 µM | UACC-62 16.6 µM | COLO 205 14.4 µM | HT-29 11.5 µM | SK-MEL-5 14.5 µM | SNB-19 17.9 µM | NCI-H23 18.4 µM | MOLT-4 16.4 µM | HL-60 14.6 µM | ACHN 15.9 µM | KM12 16.9 µM | LOX IMVI 15.4 µM | DU-145 19.8 µM | NCI-H522 19.1 µM | SK-MEL-2 20.7 µM | MDA-MB-231 15.2 µM | OVCAR-5 20.7 µM | SR 13.7 µM | RXF 393 10.1 µM | K562 16.9 µM | NCI-H226 9.04 µM | PC-3 17.3 µM | SN12C 18.2 µM | MCF7 16 µM | IGROV-1 18 µM | A498 17 µM | M14 16.2 µM | SF-539 15.7 µM | SW-620 15 µM | OVCAR-8 18.6 µM | HOP-92 9.08 µM | U-251 16 µM | MDA-MB-435 14.5 µM | HCT-116 16.6 µM | A549 17 µM | BT-549 16.4 µM | MDA-N 17.8 µM | RPMI-8226 14.1 µM | Malme-3M 13.9 µM | SF-268 17.1 µM

CCOC(=O)CCCc1cc(O)c2c(C)c3[nH]c4ccc(Cl)cc4c3c(C)c2n1
inactive: UACC-257 43.2 µM | NCI-H460 16.5 µM | CCRF-CEM 42.5 µM | 786-0 20.4 µM | TK-10 21.1 µM | HOP-62 20.7 µM | NCI/ADR-RES 23.4 µM | OVCAR-4 23.7 µM | SNB-75 25.9 µM | UO-31 20.1 µM | CAKI-1 24.9 µM | COLO 205 41.8 µM | EKVX 79.1 µM | HT-29 23.7 µM | SK-MEL-5 19.8 µM | SK-MEL-28 28.3 µM | SNB-19 23.7 µM | NCI-H23 50.2 µM | MOLT-4 49.8 µM | HL-60 24 µM | OVCAR-3 17.7 µM | ACHN 24.3 µM | SF-295 28.8 µM | KM12 37.2 µM | LOX IMVI 38.7 µM | DU-145 23.8 µM | SK-MEL-2 26.9 µM | MDA-MB-231 23.9 µM | OVCAR-5 82.6 µM | SR 44.4 µM | RXF 393 12.7 µM | K562 26.1 µM | NCI-H226 19.1 µM | PC-3 28.8 µM | SN12C 27.3 µM | MCF7 15.9 µM | IGROV-1 30.2 µM | HCC 2998 44.4 µM | A498 15.3 µM | M14 34.9 µM | SF-539 14.6 µM | SW-620 32.2 µM | OVCAR-8 24.9 µM | HOP-92 22 µM | U-251 22.9 µM | MDA-MB-435 18.5 µM | HCT-116 34.8 µM | A549 19.6 µM | BT-549 19 µM | MDA-N 34.9 µM | RPMI-8226 32.6 µM | Malme-3M 24 µM | SF-268 26.2 µM
31.5 µM: HCT-15

O=c1c2cc(S(=O)(=O)Nc3c(Cl)cccc3Cl)ccc2ncn1NS(=O)(=O)c1ccc2ccccc2c1
39.6 µM: HCT-15
inactive: UACC-257 > 62.5 µM | NCI-H460 42.2 µM | CCRF-CEM 17.1 µM | 786-0 > 62.5 µM | TK-10 > 62.5 µM | HOP-62 13 µM | NCI/ADR-RES > 62.5 µM | OVCAR-4 > 62.5 µM | SNB-75 50.1 µM | UO-31 10.9 µM | CAKI-1 25.9 µM | UACC-62 33.2 µM | COLO 205 46.6 µM | EKVX 12.9 µM | HT-29 16.4 µM | SK-MEL-28 > 62.5 µM | SNB-19 32.6 µM | NCI-H23 > 62.5 µM | MOLT-4 30.3 µM | HL-60 20.2 µM | OVCAR-3 7.46 µM | ACHN > 62.5 µM | SF-295 23 µM | KM12 15.2 µM | SK-OV-3 > 62.5 µM | LOX IMVI 25.4 µM | DU-145 42.9 µM | NCI-H522 45.4 µM | SK-MEL-2 20 µM | MDA-MB-231 42.4 µM | OVCAR-5 12.6 µM | SR 40.9 µM | K562 16.6 µM | NCI-H226 8.87 µM | PC-3 12.8 µM | SN12C > 62.5 µM | MCF7 > 62.5 µM | IGROV-1 8.67 µM | HCC 2998 24.4 µM | M14 > 62.5 µM | SF-539 > 62.5 µM | SW-620 > 62.5 µM | OVCAR-8 > 62.5 µM | HOP-92 19.6 µM | U-251 > 62.5 µM | MDA-MB-435 > 62.5 µM | HCT-116 61.8 µM | A549 > 62.5 µM | BT-549 22.3 µM | MDA-N 41 µM | RPMI-8226 28.8 µM | Malme-3M > 62.5 µM | SF-268 > 62.5 µM | Hs-578T 15.8 µM

Reference: ChEMBL document CHEMBL1201862, “PubChem BioAssay data set” (2004)
